Data reported in US5770734A, “N-substituted-2-aminoquinolines useful for treating hypofunction of the cholinergic system” (American Home Products Corporation, priority 1992, dated 1998).
Like-named read-outs stand apart in the source and are kept apart here. Each block holds one molecule with its values, some of them ahead of it.

Assays:
[1] = molecular target: T1, M1 muscarinic receptor (Rattus norvegicus, UniProt P08482); experiment: M1 receptor binding ([^3 H]-pirenzepine); parameters: species or system rat (male Sprague-Dawley); details: Table 1; rat brain tissue, [^3 H]PZ 0.5 nM; read-out: ^3 H-Pirenzepine M1 IC50
T1 sequence (P08482 1-460): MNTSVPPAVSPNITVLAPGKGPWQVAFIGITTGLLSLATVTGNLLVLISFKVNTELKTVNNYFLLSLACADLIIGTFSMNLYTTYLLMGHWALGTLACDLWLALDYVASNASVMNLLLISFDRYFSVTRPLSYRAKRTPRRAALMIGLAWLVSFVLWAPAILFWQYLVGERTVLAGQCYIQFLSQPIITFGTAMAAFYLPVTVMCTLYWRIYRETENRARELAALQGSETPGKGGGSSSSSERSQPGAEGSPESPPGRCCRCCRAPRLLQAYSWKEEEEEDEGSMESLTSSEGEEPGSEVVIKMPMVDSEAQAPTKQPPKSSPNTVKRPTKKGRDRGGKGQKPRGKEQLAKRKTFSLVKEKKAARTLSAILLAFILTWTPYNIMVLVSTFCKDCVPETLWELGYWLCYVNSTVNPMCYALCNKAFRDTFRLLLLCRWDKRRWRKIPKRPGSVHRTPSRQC
Description: Compounds are tested for their ability to affect M1 muscarinic binding through use of [^3 H]-pirenzepine ([^3 H]PZ) as a prototypic M1 receptor ligand. Male Sprague-Dawley (Charles River) rats are used. Dose selection is typically in the concentration range of 10^-9 to 10^-4 M. Test and reference compounds are dissolved and diluted in water or ethanol and are then added to the assay buffer. The appropriate vehicle is added to the assay buffer for control testing.
The rats (approximately 300 gm body weight) have free access to food and water and are housed in groups of four to six. On the test day, the rats are euthanized by decapitation and brain tissue is dissected and homogenized using a hand-held teflon-coated pestle, in 20 volumes of 0.32M sucrose (20 strokes at 4° C.). After centrifugation (747×g for 10 minutes at 4° C.), the resultant supernatant is decanted and recentrifuged (18677×g for 20 minutes at 4° C.). The resultant pellet is resuspended in the original volume of 0.32M sucrose and frozen. After thawing, the suspension is diluted (1:1 v/v) with 10 mM Na2 HPO4 /KH2 PO4 buffer (pH=7.4). [^3 H]PZ (0.5 nM, 0.04 μCi) is then incubated with a 100 μl sample of the tissue suspension in the above buffer (1 ml final volume, including a 10 μl sample of test compound or vehicle). […] After 60 minutes of incubation at 25° C. (in the dark), the binding is terminated by vacuum filtration onto Whatman GF/B filters (pre-soaked for 60 minutes in 0.1% (w/v) polyethylenimine to reduce non-specific binding). After three washes with the previously mentioned buffer (4° C., 3 ml/wash), the vacuum is allowed to run for two minutes before the filter-trapped radioactivity is assayed by liquid scintillation spectroscopy.
Data are presented as the percent inhibition ([control-test]/control×100%) or enhancement ([test-control]/control×100%) of [^3 H]PZ binding by the test or reference compound. The IC50 value (the drug concentration which causes a 50% inhibition of specific [^3 H]PZ binding) is calculated through the use of the EDOSE program (with probit transformation written by a person for use in STAT80). Increases in [^3 H]PZ are reported as percent increase (versus control) for a given test drug concentration.

[2] = molecular target: T2, M2 receptors (Rattus norvegicus, UniProt P10980); experiment: biochemical; assay type: binding; details: read-out: ^3 H-QNB M2 IC50
T2 sequence (P10980 1-466): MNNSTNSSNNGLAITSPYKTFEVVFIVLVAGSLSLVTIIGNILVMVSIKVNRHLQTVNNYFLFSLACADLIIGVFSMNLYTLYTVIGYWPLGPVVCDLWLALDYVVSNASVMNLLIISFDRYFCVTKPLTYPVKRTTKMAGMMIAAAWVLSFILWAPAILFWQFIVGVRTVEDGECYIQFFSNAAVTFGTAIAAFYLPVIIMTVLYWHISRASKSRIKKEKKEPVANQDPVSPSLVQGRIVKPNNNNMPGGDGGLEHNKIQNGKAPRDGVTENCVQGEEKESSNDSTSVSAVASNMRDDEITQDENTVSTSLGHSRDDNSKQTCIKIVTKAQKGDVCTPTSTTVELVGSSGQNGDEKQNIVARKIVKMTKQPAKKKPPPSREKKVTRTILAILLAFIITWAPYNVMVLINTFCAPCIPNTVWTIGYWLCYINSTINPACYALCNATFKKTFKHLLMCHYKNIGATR

[3] = test system: M2 receptors; experiment: biochemical; assay type: binding; details: Table 1; ratio of M2 IC50 to M1 IC50
[4] = test system: scopolamine-induced hyperactivity, a proposed muscarinic M1 -mediated effect; experiment: Scopolamine-induced hyperactivity (locomotor activity); assay type: in vivo, rat; parameters: Total activity: unit not given here
Description: Compounds were evaluated for the ability to attenuate scopolamine-induced hyperactivity, a proposed muscarinic M1 -mediated effect. Animals were permitted to habituate for 30 minutes in locomotor activity chambers (Digiscan, Omnitech; Columbus, Ohio) in which infrared detectors were used to measure movement in 3 axes. The animals were then injected i.p. with vehicle alone, scopolamine alone (1.7 mg/kg) or both scopolamine and one dose of the test compound. Animals were then replaced in the chambers and locomotor activity was measured for an additional 1 hour period. Total activity measures (vertical+horizintal movements) were collected and statistically analyzed in four 15 minute periods.

[5] = test system: Scopolamine-impaired Radial Arm Maze; experiment: Scopolamine-impaired Radial Arm Maze; assay type: in vivo, rat (male Sprague-Dawley)
From the text: Male Sprague-Dawley (Charles River) rats on a 23-hour food deprivation schedule were trained in an eight arm radial maze with all arms baited. Each session consisted of two maze exposures, with a time limit of 300 seconds for each exposure. After four correct choices (first exposure), each animal was removed from the maze for one hour, then returned with only the remaining four arms baited (second exposure). Choice errors, consisting of delay errors (re-entry into any of the four arms chosen during the first exposure) and current errors (re-entry into any of the four arms chosen during the second exposure), as well as total errors were recorded. Durations for each exposure were also recorded. Statistical analysis was performed using a one-way ANOVA with Dunnett's t-test comparisons. Scopolamine (0.3 mg/kg, S.C.) and the compound of Example 1 (3,10 mg/kg, I.P,.) were administrered simultaneously 30 minutes prior to the test. All compounds were solubilized in phosphate buffered saline.

[6] = test system: scopolamine-induced memory loss; details: cited from earlier work
[7] = test system: memory loss; details: cat, rat, and monkey; muscarinic antagonist; cited from earlier work
[8] = test system: scopolamine-induced memory loss; details: rats; cited from earlier work
[9] = test system: Alzheimer's patients and healthy elderly patients; details: cited from earlier work; for clinical efficacy: human, in vivo
[10] = test system: scopolamine-induced memory loss; details: monkeys; cited from earlier work
[11] = scopolamine + Example 1 3.0 mg/kg I.P., N=11
[12] = scopolamine + Example 1 10.0 mg/kg I.P., N=12
[13] = scopolamine alone 0.3 mg/kg S.C., N=12

- IC50 [1]: 1.2 µM
- IC50 [2]: 69.3 µM
- M2/M1 [3]: 58
Molecule: Cc1cc(NCCCN2CCOCC2)nc2ccccc12 [Example 1, 4-Methyl-N-[3-(4-morpholinyl)propyl]-2-quinolinamine (E)-2-butenedioate 1:1 hydrate]
- attenuation of scopolamine hyperactivity ([4]; 30 and 54 mg/kg i.p., 30 and 45 minutes post-injection): produced an attenuation at 30 and 45 minutes post-injection that did not differ from the scopolamine-or vehicle-only controls
- minimal effective dose ([4]; Rattus norvegicus, ip, attenuation of scopolamine (1.7 mg/kg) hyperactivity, i.p., read-out: minimum effective dose): 30 mg/kg
- in vivo M1 agonist activity, less effective than oxotremorine ([4]; relative to oxotremorine): 100 fold
- Total activity ([4]; scopolamine + Example 1 30 mg/kg i.p., 15 min, N=10): 3792
- Total activity ([4]; scopolamine + Example 1 30 mg/kg i.p., 30 min, N=10): 2069
- Total activity ([4]; scopolamine + Example 1 30 mg/kg i.p., 45 min, N=10): 1839
- Total activity ([4]; scopolamine + Example 1 30 mg/kg i.p., 60 min, N=10): 1697
- Total activity ([4]; scopolamine + Example 1 54 mg/kg i.p., 15 min, N=10): 3602
- Total activity ([4]; scopolamine + Example 1 54 mg/kg i.p., 30 min, N=10): 1899
- Total activity ([4]; scopolamine + Example 1 54 mg/kg i.p., 45 min, N=10): 1722
- Total activity ([4]; scopolamine + Example 1 54 mg/kg i.p., 60 min, N=10): 1535
- effect on scopolamine impairment ([5]; 3.0 mg/kg I.P.): non-significantly reduced this scoplamine impairment
- effect on scopolamine impairment ([5]; 10 mg/kg I.P.): had no effect
- effect on increased time measures caused by scopolamine ([5]; 3, 10 mg/kg I.P.): largely unaffected
- cognitive impairments seen after scopolamine treatment (conclusion) ([5]; rat, in vivo): can reduce the cognitive impairments seen after scopolamine treatment
- Mean Error, Current [5, 11]: 0.55
- Mean Error, Delay [5, 11]: 1.77
- Mean Error, Total [5, 11]: 1.14
- Mean Time 1.4 [5, 11]: 90.10 s
- Mean Time 5- [5, 11]: 121.73 s
- Mean Time Total [5, 11]: 105.91 s
- Mean Error, Current [5, 12]: 0.33
- Mean Error, Delay [5, 12]: 2.75
- Mean Error, Total [5, 12]: 1.54
- Mean Time 1.4 [5, 12]: 113.8 s
- Mean Time 5- [5, 12]: 148.1 s
- Mean Time Total [5, 12]: 130.92 s

Molecule: CN1[C@@H]2C[C@@H](OC(=O)[C@H](CO)c3ccccc3)C[C@H]1[C@@H]1O[C@@H]12 [Scopolamine]
- effect on total activity ([4]; scopolamine 1.7 mg/kg, 15, 30, 45 and 60 minutes post-injection): significantly elevated total activity at all four time points
- Total activity ([4]; scopolamine alone 1.7 mg/kg i.p., first experiment (Example 1), 15 min, N=9): 4349
- Total activity ([4]; scopolamine alone 1.7 mg/kg i.p., first experiment (Example 1), 30 min, N=9): 2816
- Total activity ([4]; scopolamine alone 1.7 mg/kg i.p., first experiment (Example 1), 45 min, N=9): 2638
- Total activity ([4]; scopolamine alone 1.7 mg/kg i.p., first experiment (Example 1), 60 min, N=9): 1858
- Total activity ([4]; scopolamine alone 1.7 mg/kg i.p., second experiment (oxotremorine), 15 min, N=9): 5486
- Total activity ([4]; scopolamine alone 1.7 mg/kg i.p., second experiment (oxotremorine), 30 min, N=9): 4720
- Total activity ([4]; scopolamine alone 1.7 mg/kg i.p., second experiment (oxotremorine), 45 min, N=9): 3718
- Total activity ([4]; scopolamine alone 1.7 mg/kg i.p., second experiment (oxotremorine), 60 min, N=9): 3510
- effect on delay and total errors ([5]; scopolamine 0.3 mg/kg S.C., compared to vehicle): produced a significant impairment in both delay and total errors
- Mean Error, Current [5, 13]: 1.0
- Mean Error, Delay [5, 13]: 2.80
- Mean Error, Total [5, 13]: 1.90
- Mean Time 1.4 [5, 13]: 87.25 s
- Mean Time 5- [5, 13]: 169.80 s
- Mean Time Total [5, 13]: 128.50 s
- memory loss in normal humans ([6]; muscarinic antagonist): can be artificially induced
- memory loss in animals [7]: can be artificially induced

Molecule: COC(=O)C1=CCCN(C)C1 [arecoline]
- reversal of scopolamine-induced deficit [8]: can be reversed
- clinical efficacy [9]: neither physostigmine nor arecoline have clinical efficacy due to undesirable side-effects, a short duration of action and a narrow active dose range

Molecule: CNC(=O)Oc1ccc2c(c1)[C@]1(C)CCN(C)[C@@H]1N2C [physostigmine]
- reversal of scopolamine-induced deficit ([6]; humans): can be reversed
- reversal of scopolamine-induced deficit [10]: can be reversed
- clinical efficacy [9]: neither physostigmine nor arecoline have clinical efficacy due to undesirable side-effects, a short duration of action and a narrow active dose range

Molecule: lecithin
- improvement on cognitive tests ([9]; Alzheimer's patients and healthy elderly patients): No significant improvement was observed on any cognitive test
